Measurements reported in BindingDB's records for doi:10.1016/j.bmcl.2019.04.009 (Wannan Medical College, 2019).
pIC50: −log10 of the molar value.

Target: Epidermal growth factor receptor (Homo sapiens, UniProt P00533)
Assay: Inhibition of EGFR L858R mutant (unknown origin) using polyE4Y1 as substrate measured after 60 mins

Epidermal growth factor receptor, sequence (P00533 25-1210 L858R limits assumed): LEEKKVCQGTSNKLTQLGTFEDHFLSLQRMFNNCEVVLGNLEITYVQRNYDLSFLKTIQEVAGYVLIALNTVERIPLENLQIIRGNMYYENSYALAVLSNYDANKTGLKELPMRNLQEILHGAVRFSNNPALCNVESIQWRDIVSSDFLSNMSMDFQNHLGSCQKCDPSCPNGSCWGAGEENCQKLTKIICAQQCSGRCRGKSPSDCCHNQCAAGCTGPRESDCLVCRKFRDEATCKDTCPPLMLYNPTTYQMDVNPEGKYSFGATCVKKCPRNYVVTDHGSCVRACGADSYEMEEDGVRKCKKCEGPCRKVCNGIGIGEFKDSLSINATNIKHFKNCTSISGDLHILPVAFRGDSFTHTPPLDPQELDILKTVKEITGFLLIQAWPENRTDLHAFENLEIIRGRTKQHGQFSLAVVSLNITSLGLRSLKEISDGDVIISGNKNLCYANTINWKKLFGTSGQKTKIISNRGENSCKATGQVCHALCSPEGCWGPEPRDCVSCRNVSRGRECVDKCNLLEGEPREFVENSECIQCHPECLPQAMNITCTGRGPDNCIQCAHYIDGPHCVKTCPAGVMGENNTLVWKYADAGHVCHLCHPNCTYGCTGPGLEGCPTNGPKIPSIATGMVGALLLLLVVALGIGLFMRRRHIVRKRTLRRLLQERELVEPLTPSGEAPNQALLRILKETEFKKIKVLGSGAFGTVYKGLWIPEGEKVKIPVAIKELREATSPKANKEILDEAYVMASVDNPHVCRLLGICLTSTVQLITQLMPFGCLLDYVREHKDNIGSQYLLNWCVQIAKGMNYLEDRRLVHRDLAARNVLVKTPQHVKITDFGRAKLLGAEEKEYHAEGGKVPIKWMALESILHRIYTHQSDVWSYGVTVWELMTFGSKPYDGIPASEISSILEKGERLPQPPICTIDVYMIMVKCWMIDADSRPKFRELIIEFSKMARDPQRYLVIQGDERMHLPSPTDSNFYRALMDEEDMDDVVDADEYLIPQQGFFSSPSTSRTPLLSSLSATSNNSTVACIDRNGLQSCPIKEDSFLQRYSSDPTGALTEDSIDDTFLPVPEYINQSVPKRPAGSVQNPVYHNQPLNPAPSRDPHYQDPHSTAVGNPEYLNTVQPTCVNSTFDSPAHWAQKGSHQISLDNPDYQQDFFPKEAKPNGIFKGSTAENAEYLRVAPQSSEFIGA

C[C@H]1[C@H](C)CC[C@]2(C(=O)O)CC[C@]3(COC(=O)/C=C/c4ccc(O)cc4)C(=CC[C@@H]4[C@@]5(C)CC[C@H](O)C(C)(C)[C@@H]5CC[C@]43C)[C@H]12 [27-trans-p-coumaroyloxyursolic acid]
pIC50: 7.25
